“Also recorded” adds a separate entry of the source.
Columns and labels:
[1] = molecular target: T1, α-glucosidase (Saccharomyces cerevisiae, UniProt P53341); test: α-glucosidase inhibition assay
[2] = molecular target: T1, α-glucosidase; settings: Lineweaver–Burk plot
[3] = molecular target: T1, α-glucosidase; test: biochemical

T1 sequence (P53341 whole entry): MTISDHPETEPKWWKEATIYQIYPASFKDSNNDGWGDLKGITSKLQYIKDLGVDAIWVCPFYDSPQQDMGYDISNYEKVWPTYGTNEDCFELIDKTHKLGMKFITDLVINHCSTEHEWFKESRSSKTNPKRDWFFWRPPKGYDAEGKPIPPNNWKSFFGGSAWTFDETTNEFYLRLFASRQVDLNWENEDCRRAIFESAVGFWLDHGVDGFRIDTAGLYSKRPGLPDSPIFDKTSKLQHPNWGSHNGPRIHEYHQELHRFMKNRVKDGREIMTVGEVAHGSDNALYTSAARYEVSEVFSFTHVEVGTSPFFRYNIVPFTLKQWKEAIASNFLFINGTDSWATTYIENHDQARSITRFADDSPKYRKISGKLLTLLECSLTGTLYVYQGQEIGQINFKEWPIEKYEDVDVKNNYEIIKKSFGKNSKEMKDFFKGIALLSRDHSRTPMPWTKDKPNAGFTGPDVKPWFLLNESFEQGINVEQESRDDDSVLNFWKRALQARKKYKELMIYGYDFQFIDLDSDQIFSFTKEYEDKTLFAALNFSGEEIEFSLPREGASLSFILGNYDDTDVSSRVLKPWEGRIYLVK

SMILES	IC50 [1] [µM]	mode of inhibition [2]	Ki [3] [µM]
COc1ccc2nc3cc(Cl)ccc3c(SCc3cn(Cc4ccccc4C)nn3)c2c1 [Compound 7d, 6-chloro-2-methoxy-9-(((1-(2-methylbenzyl)-1H-1,2,3-triazol-4yl)methyl)thio)acridine]	482 ± 0.2	–	–
COc1ccc2nc3cc(Cl)ccc3c(SCc3cn(Cc4ccccc4Br)nn3)c2c1 [Compound 7j, 9-((1-(2-bromobenzyl)-1H-1,2,3-triazol-4-yl)methylthio)-6-chloro-2-methoxyacridine]	302.8 ± 0.6	–	–
COc1ccc2nc3cc(Cl)ccc3c(SCc3cn(Cc4cccc(Cl)c4Cl)nn3)c2c1 [Compound 7k, 9-((1-(2,3-dichlorobenzyl)-1H-1,2,3-triazol-4-yl)methylthio)-6-chloro-2-methoxyacridine]	> 750	–	–
COc1ccc2nc3cc(Cl)ccc3c(SCc3cn(Cc4ccccc4)nn3)c2c1 [Compound 7a, 9-((1-benzyl-1H-1,2,3-triazol-4-yl)methylthio)-6-chloro-2-methoxyacridine]	169.1 ± 0.9	–	–
COc1ccc2nc3cc(Cl)ccc3c(SCc3cn(Cc4ccc([N+](=O)[O-])cc4)nn3)c2c1 [Compound 7n, 9-((1-(4-nitrobenzyl)-1H-1,2,3-triazol-4-yl)methylthio) -6-chloro-2-methoxyacridine]	> 750	–	–
COc1ccc(Cn2cc(CSc3c4ccc(Cl)cc4nc4ccc(OC)cc34)nn2)cc1 [Compound 7c, 9-((1-(4-methoxybenzyl)-1H-1,2,3-triazol-4-yl)methylthio)-6-chloro-2-methoxyacridine]	> 750	–	–
COc1cccc(Cn2cc(CSc3c4ccc(Cl)cc4nc4ccc(OC)cc34)nn2)c1 [Compound 7b, 9-((1-(3-methoxybenzyl)-1H-1,2,3-triazol-4-yl)methylthio)-6-chloro-2-methoxyacridine]	> 750	–	–
COc1ccc2nc3cc(Cl)ccc3c(SCc3cn(Cc4cccc(F)c4)nn3)c2c1 [Compound 7g, 9-((1-(3-fluorobenzyl) -1H-1,2,3-triazol-4-yl)methylthio) -6-chloro-2-methoxyacridine]	164 ± 0.6	–	–
COc1ccc2nc3cc(Cl)ccc3c(SCc3cn(Cc4ccc(F)cc4)nn3)c2c1 [Compound 7h, 9-((1-(4-fluorobenzyl)-1H-1,2,3-triazol-4-yl)methylthio)-6-chloro-2-methoxyacridine]	98 ± 0.3	competitive inhibitor; also recorded: competitive inhibition	98
COc1ccc2nc3cc(Cl)ccc3c(SCc3cn(Cc4ccccc4Cl)nn3)c2c1 [Compound 7i, 9-((1-(2-chlorobenzyl)-1H-1,2,3-triazol-4-yl)methylthio) -6-chloro-2-methoxyacridine]	> 750	–	–
COc1ccc2nc3cc(Cl)ccc3c(SCc3cn(Cc4ccccc4[N+](=O)[O-])nn3)c2c1 [Compound 7m, 9-((1-(2-nitrobenzyl)-1H-1,2,3-triazol-4-yl)methylthio)-6-chloro-2methoxyacridine]	> 750	–	–
COc1ccc2nc3cc(Cl)ccc3c(SCc3cn(Cc4ccc(C)cc4)nn3)c2c1 [Compound 7f, 6-chloro-2-methoxy-9-(((1-(4-methylbenzyl)-1H-1,2,3-triazol-4-yl)methyl)thio) acridine]	123.1 ± 0.8	–	–
COc1ccc2nc3cc(Cl)ccc3c(SCc3cn(Cc4cccc(C)c4)nn3)c2c1 [Compound 7e, 6-chloro-2-methoxy-9-(((1-(3-methylbenzyl)-1H-1,2,3-triazol-4-yl)methyl)thio)acridine]	> 750	–	–
COc1ccc2nc3cc(Cl)ccc3c(SCc3cn(Cc4ccc(Cl)cc4Cl)nn3)c2c1 [Compound 7l, 9-((1-(2,4-dichlorobenzyl)-1H-1,2,3-triazol-4-yl)methylthio)-6-chloro-2-methoxyacridine]	229.2 ± 1.3	–	–
